The record followed here is US20170327779A1, “METHOD FOR PRODUCING CELL AGGREGATES” (Kaneka Corporation, priority 2015, published 2017).

Common to all, as to type: cell-based
The subject of data set [1] is human iPS cells. Put plainly: Glucose consumption and total cell count of human iPS cells cultured in suspension with LPA or S1P. As to conditions: 0.2 or 1 μg/mL, compared with BSA-ff alone; for number of cells (total cell count): Day 5, n=3 (FIG. 13); for glucose consumption: Days 2 to 5, n=3 (FIG. 12). On the procedure: Human iPS cell suspensions were prepared using substantially the same protocol as in Example 5. To each cell suspension were added LPA or S1P at a final concentration of 0.2 μg/mL or 1 μg/mL, and BSA-ff at a final concentration of 5 mg/mL and Y-27632 (Wako Pure Chemical Industries, Ltd.) at a final concentration of 10 μM. As a control, cell suspensions were prepared using the same protocol as in Example 5. That is, prepared were the cell suspensions solely containing BSA-ff at a final concentration of 5 mg/mL and Y-27632 at a final concentration of 10 μM.
The above cell suspensions were subjected to suspension culture for […] under the same conditions as in Example 5. At Day 2 of culture, the culture medium was changed every day with Essential 8™ culture medium supplemented with 5 mg/mL BSA-ff. At Days 2, 3, 4, and 5, the concentration of glucose in the culture supernatant was measured to calculate glucose consumption. In addition, at Day 5 of culture, cell aggregates were collected, dispersed using Accutase, and suspended in Essential 8™ culture medium supplemented with 5 mg/mL BSA-ff. A portion of each cell suspension was stained with trypan blue and the number of cells was counted. The above cell suspensions were centrifuged at 300 g for 5 min, the supernatant was then removed, and the cells were washed with PBS (phosphate buffered saline). Next, the cells were fixed with 4% PFA (paraformaldehyde) at room temperature for 20 min, then washed 3 times with PBS, and permeabilized with cold methanol at −20° C. overnight. After washed 3 times with PBS, the cells were blocked with 3% FBS (fetal calf serum)/PBS and stained using a fluorescently labeled anti-SOX2 antibody (Cat. No. 656110, Biolegend, Inc.) and a fluorescently labeled anti-OCT4 antibody (Cat. No. 653703, Biolegend, Inc.) at 4° C. for 1 h. After washed once with 3% FBS (fetal calf serum)/PBS, the cells were made to pass through a cell strainer. The resulting cells were analyzed on FACSVerse.
The following procedure was used to measure glucose consumption. Specifically, the culture supernatant was recovered at medium change and a bioanalyzer (Y512950), manufactured by YSI, Inc., was used to measure the remaining glucose amount. In this way, the glucose consumption was calculated.
A total cell count was measured at Day 5 of culture. The following procedure was used to measure the total cell count. Specifically, the cell aggregates that had been formed were treated with TrypLE Select for 5 to 10 min, pipetted using a blue tip to monodisperse as cells, and stained with trypan blue. After that, the number of cells was counted using a hemocytometer to determine the total cell count.

Data set [2] deals with human iPS cells. In words: Effect of LPA or S1P on cell aggregation of human iPS cells in suspension culture, microscopic observation. The following applies: for φ, width of the widest portion of cell aggregate (average±standard deviation): 1 day, 30 aggregates; for size of spherical cell aggregates: 0.2 μg/mL, BSA-ff 5 mg/mL, Y-27632 10 μM, 1 day suspension culture (FIG. 8). As for the experimental part:
Human iPS cells that had been cultured using the protocol of Example 1 were treated with TrypLE Select, EDTA solution, or Accutase for 3 to 5 min and were detached. After dispersed as single cells, the cells were made to pass through a cell strainer with a pore size of 40 μm (Becton, Dickinson and Company) to monodisperse as single cells. The resulting cells were suspended in Essential 8™ medium containing a final concentration of 10 μM Y-27632 (Wako Pure Chemical Industries, Ltd.). A portion thereof was then stained with trypan blue and the number of cells was counted. Suspensions containing 2×10^5 cells per ml were prepared. To each cell suspension were added lipid-free bovine serum albumin (BSA-ff; CultureSure albumin, Wako Pure Chemical Industries, Ltd.) at a final concentration of 5 mg/mL and Y-27632 (Wako Pure Chemical Industries, Ltd.) at a final concentration of 10 μM. In addition, the following lipids were each added to the cell suspension and the cells were subjected to rotary shaking culture for 1 day under the same conditions as in Example 2 to culture human iPS cells in suspension. After one day of the suspension culture, the cells were observed under a microscope.
The lipids and additives used in this study are as follows: • LPA (Lysophosphatidic acid) (1-O-9Z-octadecenoyl-sn-glyceryl-3-phosphoric acid, a sodium salt, Cat. No. 62215, Cayman, Inc.; with an oleyl group at sn-1 position).
S1P (Sphingosine-1-phosphoric acid) (2S-amino-1-(dihydrogen phosphate)-4E-octadecene-1,3R-diol, Cat. No. 62570, Cayman, Inc.)
LPA at 0.2 μg/mL or S1P at 0.2 μg/mL was added to the human iPS cell suspension.
Human iPS cell suspensions were prepared using substantially the same protocol as in Example 5. LPA was added as a sodium salt at a concentration of 0.00128 μg/mL, 0.0064 μg/mL, 0.032 μg/mL, 0.16 μg/mL, 0.8 μg/mL, 4 μg/mL, 20 μg/mL, or 100 μg/mL. To each suspension were added BSA-ff at a final concentration of 5 mg/mL and Y-27632 (Wako Pure Chemical Industries, Ltd.) at a final concentration of 10 μM. The cells were cultured in suspension for 1 day under the same conditions as in Example 5 and then observed under a microscope.
Inspected were 30 cell aggregates on an observation image obtained when the concentration of LPA was from 0.16 to 100 μg/mL. While being compared using a micrograph scale, the width (referred to as “φ”) of the widest portion of each cell aggregate was measured to calculate an average±standard deviation.
Human iPS cell suspensions were prepared using substantially the same protocol as in Example […] was added as a free form at a concentration of 0.00128 μg/mL, 0.0064 μg/mL, 0.032 μg/mL, 0.16 μg/mL, 0.8 μg/mL, 4 μg/mL, 20 μg/mL, or 100 μg/mL. To each suspension were added BSA-ff at a final concentration of 5 mg/mL and Y-27632 (Wako Pure Chemical Industries, Ltd.) at a final concentration of 10 μM. The cells were cultured in suspension for 1 day under the same conditions as in Example 5 and then observed under a microscope.
Inspected were 30 cell aggregates on an observation image obtained when the concentration of S1P was from 0.032 to 100 μg/mL. While being compared using a micrograph scale, the width (referred to as “φ”) of the widest portion of each cell aggregate was measured to calculate an average±standard deviation. […]

The test system of data set [3] is human iPS cells. Put plainly: Formation of aggregates of human iPS cells by rotary shaking suspension culture with KSR or its protein-based components. As to conditions: factor added instead of KSR; micrographs at Day 1 (FIG. 6). As for the experimental part:
TkDN4-M cell line (Non-Patent Literature 1) was used as human iPS cells. The human iPS cells were seeded on cell culture dishes coated with Matrigel (Corning, Inc.) or Vitronectin (Life Technologies Japan Ltd.). A culture medium, which was mTeSR1 (STEMCELL Technologies, Inc.) or Essential 8™ (Life Technologies Japan Ltd.), was used for maintenance culture. As a cell detachment agent at the time of cell passage, TrypLE Select (Life Technologies Japan Ltd.) was used when the cells were cultured on Matrigel; and 0.02% EDTA (ethylene diamine tetraacetic acid) solution or Accutase (Life Technologies Japan Ltd.) was used when the cells were cultured on Vitronectin. In addition, when the cells were seeded, Y-27632 (Wako Pure Chemical Industries, Ltd.) at a concentration of 10 μM was added to a culture medium. The culture medium was changed every day. For experiments, human iPS cells (the number of passage was 50 or less) were used.
Human iPS cells were treated with TrypLE Select or EDTA solution for 3 to 5 min and were detached. After dispersed as single cells, the cells were made to pass through a cell strainer with a pore size of 40 μm (Becton, Dickinson and Company). […] A portion thereof was then stained with trypan blue and the number of cells was counted. […]

On to “1-O-9Z-octadecenoyl-sn-glyceryl-3-phosphoric acid, a sodium salt [LPA]”, for which the “number of cells (total cell count)” value in the data set on human iPS cells [1] is given as “larger”. The glucose consumption result in the data set with human iPS cells [1] is given as “larger”. For the same molecule, the “φ, width of the widest portion of cell aggregate (average±standard deviation)” value is listed as 124.9±26.5 μm in the data set with human iPS cells [2] (0.16 μg/mL); 68.2±9.8 μm in the data set with human iPS cells [2] (0.8 μg/mL); 57.2±8.7 μm in the data set on human iPS cells [2] (4 μg/mL); 39.9±8.0 μm with human iPS cells [2] (20 μg/mL); 41.6±9.9 μm with human iPS cells [2] (100 μg/mL). In the data set on human iPS cells [2], the “size of spherical cell aggregates” value is “about 100 μm”. Besides, the “diameter of cell aggregates” value in the data set on human iPS cells [2] (LPA 0.032 μg/mL or less, 1 day (FIG. 9)) is given as no less than 1 mm. In addition, the “formation of cell aggregates” value in the data set with human iPS cells [2] (LPA 0.16 to 100 μg/mL, 1 day (FIG. 9)) is given as “cell aggregates with a substantially uniform size were formed”.

In the case of `CCCCCCCCCCCCC/C=C/[C@@H](O)[C@@H](N)COP(=O)(O)O` [S1P, 2S-amino-1-(dihydrogen phosphate)-4E-octadecene-1,3R-diol], the “number of cells (total cell count)” value in the data set with human iPS cells [1] was “larger”. For the same molecule, in the data set on human iPS cells [1], the glucose consumption entry was “larger”. In addition, the “φ, width of the widest portion of cell aggregate (average±standard deviation)” value in the data set on human iPS cells [2] (0.16 μg/mL) came to 142.4±16.4 μm; in the data set with human iPS cells [2] (0.8 μg/mL), 118.5±21.8 μm; with human iPS cells [2] (4 μg/mL), 109.9±23.1 μm; in the data set on human iPS cells [2] (20 μg/mL), 94.0±19.4 μm; with human iPS cells [2] (100 μg/mL), 89.0±19.5 μm. The “size of spherical cell aggregates” value in the data set with human iPS cells [2] is recorded as “about 100 μm”. In the data set with human iPS cells [2] (S1P 0.0064 μg/mL or less, 1 day (FIG. 10)), the “diameter of cell aggregates” value is listed as no less than 1 mm. For the same molecule, the “formation of cell aggregates” value in the data set on human iPS cells [2] (S1P 0.032 to 100 μg/mL, 1 day (FIG. 10)) is listed as “cell aggregates with a substantially uniform size were formed”.

On to “insulin: insulin (Sigma-Aldrich Co. LLC.), lipid-free protein-based component of KSR”, for which the formation of aggregates entry with human iPS cells [3] is reported as “large aggregates”.

As for “transferrin: transferrin (Sigma-Aldrich Co. LLC.), lipid-free protein-based component of KSR”, in the data set with human iPS cells [3], the formation of aggregates entry is reported as “large aggregates”.
